Measured values published in patent publication US5684205A, “Use of substituted cyclopentane- di- and -triones” (Bayer Aktiengesellschaft, priority 1994, dated 1997).

Test system: airway epithelial cell line 4MBr-5
Test: 36Cl chloride efflux inhibition in airway epithelial cell line 4MBr-5
Type: cell-based
Conditions: 20 min, 4MBr-5 cells; for inhibition at 10 µg/mL: 10 μg/ml test compound, 20 minutes efflux, expressed as a percentage of the maximal inhibition observed with NPPB
Experimental: This compound provides a suitable reference standard against which to judge other chloride channel blockers. […] In the test described below maximal inhibition of chloride efflux is observed at 300 μM, with 20% inhibition evident at the standard test concentration of 10 μg/ml.
The airway epithelial cell line 4MBr-5 was obtained from ATCC and cells were cultured in 35 mm diameter wells on six well plates until cell layers were confluent. Cells were loaded with Na^36 CI solutions at 2.5 μCi/well after washing the cell monolayer free of […] culture medium. Washing and loading were performed in Hepes buffer (pH 7.4) containing 130 mM NaCI, 5.4 mM KCI, 1.8 mM CaCI2, 1.0 mM NaH2 PO4, 0.8 mM MgSO4 and 5.5 mM glucose. After a loading period of 60 minutes the cell layer was rapidly washed with 50 mM Hepes in 241 mM sucrose containing […] MgSO4 and the buffer replaced with 2 ml of ^36 CI^- free buffer containing 10 μg/ml test compound, or vehicle control. (Test compound was also present for the final ten minutes of the loading procedure). After 20 minutes efflux was stopped and the radioactivity remaining in the cells determined by liquid scintillation spectrometry after lysis of the cells. After subtraction of the counts found in cells treated with vehicle the increased counts were compared to the corresponding value observed with NPPB and expressed as a percentage of the maximal inhibition.

| Compound | inhibition at 10 µg/mL [%] | IC (maximal) (36Cl efflux, read-out: concentration at which maximal inhibition of chloride efflux is observed) [µM] |
| --- | --- | --- |
| COc1ccc(C=C2C(=O)C(O)=C(c3ccccc3)C2=O)cc1 [2/24] | 28.6 |  |
| O=C1C(=Cc2ccc(Cl)cc2Cl)C(=O)C(c2ccccc2)=C1O [15/36] | 37.7 |  |
| O=C1C(=Cc2ccc(C(F)(F)F)cc2)C(=O)C(c2ccccc2)=C1O [16/37] | 58.2 |  |
| O=C1C(=Cc2ccc(-c3ccccc3)cc2)C(=O)C(c2ccccc2)=C1O [17/38] | 83.5 |  |
| COc1ccc(C2=C(O)C(=O)C(=Cc3ccccc3)C2=O)cc1 [18/1] | 24 |  |
| O=C1C(=Cc2ccccc2)C(=O)C(c2ccc(Cl)cc2)=C1O [19/39] | 31.1 |  |
| CCN(CC)c1ccc(C=C2C(=O)C(O)=C(c3ccccc3)C2=O)cc1 [20/40] | 22.7 |  |
| O=C1C(=Cc2ccc(OCc3ccccc3)cc2)C(=O)C(c2ccccc2)=C1O [21/41] | 50.6 |  |
| COc1ccc(C2=C(O)C(=O)C(=Cc3ccc(Cl)c(Cl)c3)C2=O)cc1 [22/42] | 65 |  |
| O=C1C(=Cc2ccccc2O)C(=O)C(c2ccccc2)=C1O [23/43] | 36.4 |  |
| O=C(O)c1cc([N+](=O)[O-])ccc1NCCCc1ccccc1 [NPPB, 2-(3-phenylpropyl)amino-5-nitrobenzoic acid, reference compound] | 20 | 300 |
